Target: T1, hpol κ (Homo sapiens, UniProt Q9UBT6)
T1 sequence (Q9UBT6 19-526): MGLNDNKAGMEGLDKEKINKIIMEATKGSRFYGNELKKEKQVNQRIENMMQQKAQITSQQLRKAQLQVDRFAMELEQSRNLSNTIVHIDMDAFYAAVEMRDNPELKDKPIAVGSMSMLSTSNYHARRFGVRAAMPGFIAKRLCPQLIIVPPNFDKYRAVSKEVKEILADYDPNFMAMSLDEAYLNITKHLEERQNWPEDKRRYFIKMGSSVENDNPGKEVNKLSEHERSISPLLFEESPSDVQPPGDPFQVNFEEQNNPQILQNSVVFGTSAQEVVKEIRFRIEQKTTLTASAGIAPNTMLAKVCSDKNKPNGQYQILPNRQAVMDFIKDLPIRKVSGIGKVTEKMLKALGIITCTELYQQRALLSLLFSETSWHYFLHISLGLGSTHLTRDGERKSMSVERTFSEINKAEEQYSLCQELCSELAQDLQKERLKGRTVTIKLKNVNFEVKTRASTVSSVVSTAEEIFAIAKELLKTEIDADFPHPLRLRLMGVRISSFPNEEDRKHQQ
Experiment: Fluorescence-based (TAMRA/BHQ strand displacement) DNA polymerase activity assay
Settings: for activity at 40 µM: read-out: % Activity Mean (hpol κ activity)

SMILES	IC50	activity at 40 µM
Cc1c(/C=N/NC(=N)N)c2ccccc2n1C(=O)c1cccc2ccccc12 [IAG-1]	84.6 µM	105%
COc1ccc2c(c1)c(/C=N/NC(=N)N)cn2C(=O)c1cccc2ccccc12 [IAG-2]	68.6 µM	104%
N=C(N)N/N=C/c1cn(Cc2ccc3ccccc3c2)c2ccccc12 [IAG-4]	48.3 µM	95%
COc1ccc2c(c1)c(/C=N/NC(=N)N)cn2Cc1ccc2ccccc2c1 [IAG-5]	43.7 µM	94%
N=C(N)N/N=C/c1cn(Cc2cccc3ccccc23)c2ccc(Cl)cc12 [IAG-7]	24.2 µM	64%
N=C(N)N/N=C/c1cn(Cc2cccc3ccccc23)c2ccc(Br)cc12 [IAG-8]	7.2 to 24.2 µM	57%
N=C(N)N/N=C/c1cn(C(=O)c2ccc3ccccc3c2)c2ccc(Cl)cc12 [IAG-9]	18.8 µM	30%
O=C1NC(=S)NC(=O)C1=Cc1cn(Cc2ccc3ccccc3c2)c2ccccc12 [IBA-1]		116%
COc1ccc2c(c1)c(C=C1C(=O)N(C)C(=O)N(C)C1=O)c(C)n2Cc1cccc2ccccc12 [IBA-2]		114%
Cc1c(C=C2C(=O)N(C)C(=O)N(C)C2=O)c2cc(Cl)ccc2n1Cc1cccc2ccccc12 [IBA-3]		111%
COc1ccc(Cn2cc(C=C3C(=O)NC(=O)NC3=O)c3cccnc32)cc1 [IBA-4]		110%
O=C1NC(=S)NC(=O)C1=Cc1cn(Cc2cccc3ccccc23)c2ncc(Cl)cc12 [IBA-5]		109%
O=C1NC(=S)NC(=O)C1=Cc1cn(Cc2cccc3ccccc23)c2ccc(Cl)cc12 [IBA-6]		108%
Cc1c(C=C2C(=O)NC(=O)NC2=O)c2ccccc2n1C(=O)c1cccc2ccccc12 [IBA-7]		107%
O=C1NC(=O)C(=Cc2cn(Cc3cccc4ccccc34)c3ncc(Cl)cc23)C(=O)N1 [IBA-8]		103%
O=C1NC(=O)C(=Cc2cn(Cc3cccc(C(F)(F)F)c3)c3ncccc23)C(=O)N1 [IBA-9]		103%

SMILES	IC50	activity at 40 µM
N#Cc1ccc(Cn2cc(C=C3C(=O)NC(=O)NC3=O)c3ccccc32)cc1 [IBA-10]		102%
Cc1c(C=C2C(=O)NC(=S)NC2=O)c2cc(Cl)ccc2n1Cc1cccc2ccccc12 [IBA-11]		99.1%
Cc1c(C=C2C(=O)NC(=O)NC2=O)c2cc(Cl)ccc2n1Cc1cccc2ccccc12 [IBA-12]		96.6%
O=C1NC(=S)NC(=O)C1=Cc1cn(Cc2cccc(C(F)(F)F)c2)c2ncccc12 [IBA-13]		96.6%
Cc1c(C=C2C(=O)NC(=O)NC2=O)c2ccccc2n1C(=O)c1ccc2ccccc2c1 [IBA-14]		95.7%
COc1ccc(Cn2cc(C=C3C(=O)NC(=S)NC3=O)c3cccnc32)cc1 [IBA-15]		95.1%
N#Cc1ccc(Cn2cc(C=C3C(=O)NC(=S)NC3=O)c3cccnc32)cc1 [IBA-16]		94.5%
COc1ccc2c(c1)c(C=C1C(=O)NC(=S)NC1=O)cn2C(=O)c1cccc2ccccc12 [IBA-17]		93.8%
Cc1c(C=C2C(=O)NC(=S)NC2=O)c2ccccc2n1C(=O)c1ccc2ccccc2c1 [IBA-18]		93.5%
Cc1c(C=C2C(=O)NC(=O)NC2=O)c2ccccc2n1Cc1ccc(Br)cc1 [IBA-19]		93.3%
COc1ccc2c(c1)c(C=C1C(=O)NC(=S)NC1=O)cn2C(=O)c1ccc2ccccc2c1 [IBA-20]		92.9%
O=C1NC(=O)C(=Cc2cn(Cc3ccc4ccccc4c3)c3ncc(Cl)cc23)C(=O)N1 [IBA-21]		92.2%
O=C1NC(=S)NC(=O)C1=Cc1cn(Cc2ccc(Br)cc2)c2ccc(COCCN3CCOCC3)cc12 [IBA-22]		91.1%
COc1ccc2c(c1)c(C=C1C(=O)NC(=S)NC1=O)c(C)n2Cc1cccc2ccccc12 [IBA-23]		91%
N#Cc1ccc(Cn2cc(C=C3C(=O)NC(=O)NC3=O)c3cccnc32)cc1 [IBA-24]		88.8%
O=C1NC(=S)NC(=O)C1=Cc1cn(C(=O)c2ccc3ccccc3c2)c2ccc(Cl)cc12 [IBA-25]		87.6%

From patent US12685733B2, “Indole molecules and use thereof in the inhibition of DNA polymerases” (BioVentures, LLC, priority 2019, dated 2026)
